Target: T1, MRGPRX2 (Homo sapiens, UniProt Q96LB1)
T1 sequence (Q96LB1 1-330): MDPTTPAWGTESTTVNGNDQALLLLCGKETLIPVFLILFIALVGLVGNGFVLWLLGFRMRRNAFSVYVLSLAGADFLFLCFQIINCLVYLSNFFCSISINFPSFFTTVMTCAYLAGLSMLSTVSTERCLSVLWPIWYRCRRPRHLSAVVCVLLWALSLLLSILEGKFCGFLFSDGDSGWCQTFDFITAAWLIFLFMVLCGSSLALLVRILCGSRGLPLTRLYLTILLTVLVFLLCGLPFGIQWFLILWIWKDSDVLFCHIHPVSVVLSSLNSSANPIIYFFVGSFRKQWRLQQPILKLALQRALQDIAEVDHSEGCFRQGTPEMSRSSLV
Assay: MRGPRX2 reporter cell assay (NFAT-RE luciferase, Substance P stimulation)
Type: cell-based
Conditions: U2OS cells stably transfected with MRGPRX2 and NFAT-RE luciferase reporter; Substance P at EC80
Description: MRGPRX2 Reporter Cell Assays U2OS cells (ATCC, Manassas, VA) were stably transfected with MRGPRX2 expression clones (GeneCopoeia, Rockville, MD) and the pGL4.30 [luc2P/NFAT-RE/Hygro] reporter plasmid (Promega, Madison, WI). Clonal cells were maintained in Growth Media (McCoy's 5A, 10% FBS, 495 μg/ml hygromycin, 2 μg/ml puromycin, 100 units/ml penicillin, and 100 ug/ml streptomycin). The day before assay, cells were plated to white 384-well microplates at 3000 (MRGPRX2) cells/well in 10 ul Assay Media (McCoy's 5A, 2% charcoal dextran stripped FBS, 100 units/ml penicillin, and 100 ug/ml streptomycin) (Gibco, Thermo Fisher) and allowed to adhere overnight. The following day, serially diluted compound stocks were added directly to the cells (final DMSO concentration of 0.5%) and pre-incubated for 30 minutes at 37° C., 5% CO2. The final concentration of Substance P (Tocris, Minneapolis, MN, or PEPTIDE INSTITUTE, Osaka, Japan) corresponding to EC80 was added to stimulate the (MRGPRX2) cells. Cells were returned to the incubator for 6 hrs, after which 5 ul of ONE-GLO substrate (Promega) was added. Luminescence was read within 15 minutes (BioTek, Winooski, VT or infinite M1000Pro, Tecan Japan, Kanagawa, Japan). Percent inhibition for each test compound was calculated using the formula: […] where: • A=the luminescence count of the “test compound” well • B=the median luminescence count of the “Vehicle (0.5% DMSO)” wells • C═the median luminescence count of the “Vehicle (0.5% DMSO)+5 uM of substance P” wells The mean percent inhibition of each concentration of “test compound” was used to generate dose-response curves. IC50 values were calculated using a four-parameter logistic fit to the data using GraphPad Prism software. • +++: […]

| IC50 [µM] | Structure (SMILES) |
| --- | --- |
| 0.0044 | Cn1cc(-c2c(-c3c(C(F)F)nn4c3OC[C@@H](O)C4)[nH]c3ncccc23)c(OC(F)F)n1 [EX. 527, (S)-3-(3-(3-(difluoromethoxy)-1-methyl-1H-pyrazol-4-yl)-1H-pyrrolo[2,3-b]pyridin-2-yl)-2-(difluoromethyl)-6,7-dihydro-5H-pyrazolo[5,1-b] [1,3]oxazin-6-ol] |
| 0.0058 | CCc1nn2c(c1-c1[nH]c3ncccc3c1-c1cn(C)nc1OC(F)F)OCCC2 [EX. 422] |
| 0.0041 | CO[C@]1(C)COc2c(-c3[nH]c4ncccc4c3-c3cn(C)nc3OC(F)F)c(C(F)F)nn2C1 [EX. 435] |
| 0.0019 | COC(=O)N[C@]1(C)COc2c(-c3[nH]c4ncccc4c3-c3cccnc3OC(F)F)c(C(F)F)nn2C1 [EX. 492] |
| 0.0021 | Cn1cc(-c2c(-c3c(C(F)F)nn4c3OC[C@@H](OCCO)C4)[nH]c3ncccc23)c(OC(F)F)n1 [EX. 534] |

Same assay, conditions: U2OS cells stably transfected with MRGPRX2 and NFAT-RE luciferase reporter; Substance P at EC80; class symbols

| IC50 [µM] | Structure (SMILES) |
| --- | --- |
| < 0.01 | Cn1cc(-c2c(-c3c(C(F)F)nn4c3OC[C@@H](NS(C)(=O)=O)C4)[nH]c3ncccc23)c(OC(F)F)n1 [EX. 526, (S)—N-(3-(3-(3-(difluoromethoxy)-1-methyl-1H-pyrazol-4-yl)-1H-pyrrolo[2,3-b]pyridin-2-yl)-2-(difluoromethyl)-6,7-dihydro-5H-pyrazolo[5,1-b] [1,3]oxazin-6-yl) methanesulfonamide] |
| < 0.01 | Cn1cc(-c2c(-c3c(C(F)F)nn4c3OC[C@@H](O)C4)[nH]c3ncccc23)c(OC(F)F)n1 [EX. 527, (S)-3-(3-(3-(difluoromethoxy)-1-methyl-1H-pyrazol-4-yl)-1H-pyrrolo[2,3-b]pyridin-2-yl)-2-(difluoromethyl)-6,7-dihydro-5H-pyrazolo[5,1-b] [1,3]oxazin-6-ol] |
| < 0.01 | C[C@@]1(O)COc2c(-c3[nH]c4ncccc4c3-c3cccnc3OC(F)F)c(C(F)F)nn2C1 [EX. 438] |
| < 0.01 | [2H]C([2H])([2H])Oc1ccc(C#N)c(-c2c(-c3c(C4CC4)nn4c3OCCC4)[nH]c3ncccc23)c1 [EX. 177] |
| 0.1 to 1 | COc1ccc(F)cc1-c1[nH]c2ncccc2c1C1=CC(C)(C)CCC1OC (stereo not drawn) [EX. 351, 2-(5-fluoro-2-methoxyphenyl)-3-(6-methoxy-3,3-dimethylcyclohex-1-en-1-yl)-1H-pyrrolo[2,3-b]pyridine] |
| < 0.01 | COc1ccc(C#N)c(-c2c(-c3cc(F)ccc3OC)[nH]c3ncccc23)c1 [EX. 107, 2-(2-(5-fluoro-2-methoxyphenyl)-1H-pyrrolo[2,3-b]pyridin-3-yl)-4-methoxybenzonitrile] |
| < 0.01 | C[C@@H](O)C(=O)N[C@@H]1COc2c(-c3[nH]c4ncccc4c3-c3cn(C)nc3OC(F)F)c(C(F)F)nn2C1 [EX. 560] |
| < 0.01 | O[C@@H]1COc2c(-c3[nH]c4ncccc4c3-c3ccccc3OC(F)(F)F)c(C(F)F)nn2C1 [EX. 464] |
| < 0.01 | OCCO[C@@H]1COc2c(-c3[nH]c4ncccc4c3-c3cccnc3OC(F)F)c(C(F)F)nn2C1 [EX. 495] |
| 0.1 to 1 | COc1ccc(F)cc1-c1[nH]c2ncccc2c1C1=CCCCC1 [EX. 301, 3-(cyclohex-1-en-1-yl)-2-(5-fluoro-2-methoxyphenyl)-1H-pyrrolo[2,3-b]pyridine] |
| < 0.01 | Cc1cc(-c2c(-c3c(C(F)F)nn4c3OC[C@@H](OCCO)C4)[nH]c3ncccc23)c(C#N)s1 [EX. 507] |
| < 0.01 | CCc1ccc(C#N)c(-c2c(-c3cn(C)nc3C(F)F)[nH]c3ncccc23)c1 [EX. 116] |
| < 0.01 | Cn1cc(-c2c(-c3c(C(F)F)nn4c3OC[C@@H](O)C4)[nH]c3ncsc23)c(OC(F)F)n1 [EX. 427, (S)-3-(6-(3-(difluoromethoxy)-1-methyl-1H-pyrazol-4-yl)-4H-pyrrolo[2,3-d]thiazol-5-yl)-2-(difluoromethyl)-6,7-dihydro-5H-pyrazolo[5,1-b] [1,3]oxazin-6-ol] |
| < 0.01 | CCc1nn2c(c1-c1[nH]c3ncccc3c1-c1cn(C)nc1OC(F)F)OCCC2 [EX. 422] |
| < 0.01 | COC(=O)N[C@@H]1COc2c(-c3[nH]c4ncccc4c3-c3cc(C)sc3C#N)c(C(F)F)nn2C1 [EX. 516] |
| < 0.01 | [2H]C([2H])([2H])Oc1ccc(C#N)c(-c2c(-c3c(C)nn4c3OCCC4)[nH]c3ncccc23)c1 [EX. 239] |
| < 0.01 | CO[C@@H]1COc2c(-c3[nH]c4ncccc4c3-c3cccnc3OC(F)F)c(C(F)F)nn2C1 [EX. 499] |
| 0.01 to 0.1 | FC(F)Oc1nnc(Cl)cc1-c1c(-c2c(C(F)F)nn3c2OCCC3)[nH]c2ncccc12 [EX. 389, 3-(3-(6-chloro-3-(difluoromethoxy)pyridazin-4-yl)-1H-pyrrolo[2,3-b]pyridin-2-yl)-2-(difluoromethyl)-6,7-dihydro-5H-pyrazolo[5,1-b] [1,3]oxazine] |
| < 0.01 | CS(=O)(=O)N[C@@H]1COc2c(-c3[nH]c4ncccc4c3-c3cccnc3OC(F)F)c(C(F)F)nn2C1 [EX. 521] |
| < 0.01 | CC(C)(O)CO[C@@H]1COc2c(-c3[nH]c4ncccc4c3-c3cccnc3C#N)c(C(F)F)nn2C1 [EX. 509] |

| IC50 [µM] | Structure (SMILES) |
| --- | --- |
| < 0.01 | COC(=O)N[C@@H]1COc2c(-c3[nH]c4ncccc4c3-c3cccnc3C#N)c(C(F)F)nn2C1 [EX. 514] |
| < 0.01 | Cn1cc(-c2c(-c3c(C(F)F)nn4c3OCCC4)[nH]c3ncccc23)c(C#N)n1 [EX. 401] |
| < 0.01 | [2H]C([2H])([2H])Oc1ccc(C#N)c(-c2c(-c3c(C)nn4c3OC(C)C4)[nH]c3ncccc23)c1 (stereo not drawn) [EX. 167] |
| < 0.01 | [2H]C([2H])([2H])Oc1ccc(C#N)c(-c2c(-c3c(C)nn4cc[nH]c34)[nH]c3ncccc23)c1 [EX. 169] |
| < 0.01 | CNC(=O)O[C@@H]1COc2c(-c3[nH]c4ncccc4c3-c3cn(C)nc3C#N)c(C(F)F)nn2C1 [EX. 503] |
| < 0.01 | Cn1cc(-c2c(-c3c(C(F)F)nn4c3OC[C@@H](OCCNS(C)(=O)=O)C4)[nH]c3ncccc23)c(OC(F)F)n1 [EX. 536] |
| < 0.01 | CO[C@]1(C)COc2c(-c3[nH]c4ncccc4c3-c3cn(C)nc3OC(F)F)c(C(F)F)nn2C1 [EX. 435] |
| < 0.01 | Cn1nc(-c2[nH]c3ncccc3c2-c2ccccc2C#N)c(C(F)(F)F)n1 [EX. 241] |
| < 0.01 | COC(=O)N[C@]1(C)COc2c(-c3[nH]c4ncccc4c3-c3cccnc3OC(F)F)c(C(F)F)nn2C1 [EX. 492] |
| < 0.01 | Cn1cc(-c2c(-c3c(C(F)F)nn4c3OC[C@@H](OCCO)C4)[nH]c3ncccc23)c(OC(F)F)n1 [EX. 534] |
| < 0.01 | CNC(=O)COC(=O)N[C@@H]1COc2c(-c3[nH]c4ncccc4c3-c3cn(C)nc3OC(F)F)c(C(F)F)nn2C1 [EX. 590] |
| < 0.01 | [2H]C([2H])([2H])Oc1ccc(C#N)c(-c2c(-c3c(C(F)F)nn4c3OCC(OC)C4)[nH]c3ncccc23)c1 (stereo not drawn) [EX. 201] |
| < 0.01 | Cn1cc(-c2c(-c3c(C(F)F)nn4c3OC[C@@H](N)C4)[nH]c3ncsc23)c(OC(F)F)n1 [EX. 428, (S)-3-(6-(3-(difluoromethoxy)-1-methyl-1H-pyrazol-4-yl)-4H-pyrrolo[2,3-d]thiazol-5-yl)-2-(difluoromethyl)-6,7-dihydro-5H-pyrazolo[5,1-b] [1,3]oxazin-6-amine] |
| < 0.01 | N#Cc1ccccc1-c1c(-c2c(C(F)F)nn3c2OC[C@H](O)C3)[nH]c2ncccc12 [EX. 371] |
| < 0.01 | [2H]C([2H])([2H])Oc1ccc(C#N)c(-c2c(-c3c(C)nn4c3OCC[C@@H]4C)[nH]c3ncccc23)c1 [EX. 176] |
| < 0.01 | N#Cc1ccccc1-c1c(-c2c(CF)nn3c2OCCC3)[nH]c2ncccc12 [EX. 271] |
| < 0.01 | [2H]C([2H])([2H])Oc1ccc(C#N)c(-c2c(-c3c(C(F)F)nn4c3OCCC4)[nH]c3ncccc23)c1 [EX. 247] |
| < 0.01 | FC(F)c1nn2c(c1-c1[nH]c3ncccc3c1-c1ccccc1)OC[C@@H](F)C2 [EX. 445] |
| < 0.01 | [2H]C([2H])([2H])Oc1ccc(C#N)c(-c2c(-c3c(C)nn4cc(OC)cnc34)[nH]c3ncccc23)c1 [EX. 179] |
| < 0.01 | COc1ccc(C#N)c(-c2c(-c3c(C)nn4c3OCC(NC(C)=O)C4)[nH]c3ncccc23)c1 (stereo not drawn) [EX. 354, N-[3-[3-(2-cyano-5-methoxy-phenyl)-1H-pyrrolo[2,3-b]pyridin-2-yl]-2-methyl-6,7-dihydro-5H-pyrazolo[5,1-b] [1,3]oxazin-6-yl]acetamide] |
